Where two headings read alike, the source gives them in different places.
Experiments:
Chaetoceros gracilis = Chaetoceros gracilis toxicity (phytoplankton growth) assay; format: cell-based; details: for EC50: Chaetoceros neogracilis, 96 h
Procedure: For phytoplankton growth toxicity assays, the criterion for assay validity was that the cell count of the negative control after 96 h should be ≥2 × 10^5 cells/mL [40].
The centric marine diatom C. gracilis Schütt (strain CCMP1315) was grown photoautotrophically in autoclaved artificial seawater (sea salts; Sigma-Aldrich, St. Louis, MO, USA) (30‰) supplemented with F/2 (half-strength medium f as subsequently modified) in 100 mL medium at 20 °C and with ambient air bubbled in the media. By monitoring cell density, an adjusted culture of >1 × 10^6 cells/mL was used for the toxicity assays. At 96 h, a 0.9 mL aliquot of each treatment was sampled, mixed with 0.1 mL Lugol and cell density was counted. Experiments were assumed valid if cell count in the control after 96 h was […].
(§1) For EC50 or IC50 (the concentration that results in 50% stimulation or inhibition relative to the control) calculations in GraphPad Prism v.6, all data were fitted to the curve according to the following models for normalized response: Y = 100/(1 + 10^((X − LogIC50))) or Y = 100/(1 + 10^((LogEC50 − X))) depending on the trend of the curve.

in vivo = format: in vivo; details: Amphibalanus amphitrite, in vivo, read-out: LC50 Mortality; for LC50 at 24 h: 24 h exposure; for LC50 at 48 h: 48 h exposure; for LC50 at 72 h: 72 h exposure
Procedure: (§2) Adult A. amphitrite (Cirripedia, Balanidae) were collected from boat docks at Port Mikrolimano and Floisvos, Athens, Greece. Animals were cleaned of epibionts with a small hard brush and meticulously identified as individuals of the species. Adult barnacles were kept in separate aerated glass tanks (20 L) containing 200-μm filtered natural seawater at 27 °C and a 12:12 L:D photoperiod. Tanks were fed with 24-h hatched Artemia sp. (Branchiopoda) nauplii and Tetraselmis suecica (Chlorodendrophyceae) and Skeletonema costatum (Bacillariophyceae) algae each day and seawater was changed on alternate days. Upon stress to induce oviposition (exposure to air for 24 h or immersion in fresh water for 5 h), adults were returned to seawater for larval release. Hatched nauplii were attracted to a point light source, collected and placed into a beaker containing 2 or 3 L of 0.7 μm GF/F (GE Healthcare, Little Chalfont, UK )-filtered natural seawater at a density of approximately 1–2 nauplii/mL with gentle aeration. Nauplii were maintained at 27 °C at a 12:12 L:D photoperiod on a diet of C. gracilis (Bacillariophyceae) provided at a density of 2 × 10^5 cells/mL. Cultured in these conditions, nauplii metamorphosed to cyprids in 5 days. Aliquots of these cyprids were collected with a wide-mouthed Pasteur pipette and aged at 4 °C for 1 day prior to use in settlement assays. Only batches of cyprids that were active and had numerous oil cells, representing energy reserves, were used in settlement assays.
(§3) Assays were conducted by adding 10 cyprids into individual wells of a 24-well polystyrene sterile microplate (Orange Scientific, Braine l’Alleud, Belgium) with 2 mL of artificial sea water (ASW) (25‰) and various concentrations of the chemical compounds as listed in Table 1. These experiments were repeated at least three times with four replicates for each concentration of any given compound (n = 120 cyprids/compound). Stock solutions for all compounds were prepared in methanol (Scharlab, Barcelona, Spain) and serial dilutions were prepared in 0.7 μm (GF/F, GE Healthcare, Little Chalfont, UK), filtered sea water to have a final concentration of 2.5% methanol in each assay solution. Plates were covered and sealed with Parafilm® to avoid evaporation and incubated at 25 °C away from any light source and examined after 24, 48 and 72 h. Each animal was inspected under a stereomicroscope and its condition was recorded. […] Both permanently attached and metamorphosed individuals were counted as settled or juveniles. The remainder were counted as ‘no metamorphosis’, i.e. animals that responded to light touch and were still cyprids at the end of the experiments with no overt signs of metamorphosis.
as §1

cyprids of A. amphitrite = assay: whole plant or invertebrate; format: in vivo; details: for EC50 / IC50: Amphibalanus amphitrite; for EC50: read-out: EC50 No Metamorphosis; for EC50 values for settlement inhibition of barnacle cyprids (in words): consistently, 24-72 h
Procedure: as §2, §3, §1

[1] = 24 h, read-out: IC50 Settlement
[2] = 48 h, read-out: IC50 Settlement
[3] = 72 h, read-out: IC50 Settlement

## CC(C)[C@@H]1CC=C[C@H]2[C@H]3[C@](C)(CC[C@]12CBr)[C@@H](Br)CC[C@@]3(C)O [Bromosphaerol, reference compound]
Chaetoceros gracilis
  inhibition of C. gracilis growth (in words): very potent inhibitor of C. gracilis growth
  EC50: 4.34 µM
In vivo
  LC50 at 24 h: 17.9 µM
  LC50 at 48 h: 4.57 µM
  LC50 at 72 h: 2.5 µM
Cyprids of A. amphitrite; 24 h
  EC50: 0.45 µM
Cyprids of A. amphitrite; [1]
  IC50: 0.58 µM
Cyprids of A. amphitrite; 48 h
  EC50: 0.267 µM
Cyprids of A. amphitrite; [2]
  IC50: 0.624 µM
Cyprids of A. amphitrite; 72 h
  EC50: 0.561 µM
Cyprids of A. amphitrite; [3]
  IC50: 0.836 µM
Cyprids of A. amphitrite; in vivo
  animals not progressing to metamorphosis: large percentage of animals not progressing to metamorphosis

## CC1=C2CC[C@@](C)(Cl)[C@@H](Br)C[C@]2(C)[C@@H](C)[C@@H](Br)[C@@H]1O [Compound 9, perforenol]
Chaetoceros gracilis
  EC50: 49.8 µM
In vivo
  LC50 at 24 h: 76.2 µM
  LC50 at 48 h: 116 µM
  LC50 at 72 h: 49.1 µM
Cyprids of A. amphitrite; 24 h
  EC50: 38.2 µM
Cyprids of A. amphitrite; [1]
  IC50: 0.52 µM
Cyprids of A. amphitrite; 48 h
  EC50: 47.4 µM
Cyprids of A. amphitrite; [2]
  IC50: 0.66 µM
Cyprids of A. amphitrite; 72 h
  EC50: 57.8 µM
Cyprids of A. amphitrite; [3]
  IC50: 0.5 µM
Cyprids of A. amphitrite; read-out: IC50 settlement-inhibiting activity
  IC50: ~0.5 µM
Cyprids of A. amphitrite
  EC50 values for settlement inhibition of barnacle cyprids (in words): sub-micromolar

## C=CC(C)(O)CC[C@@H]1C(=C)CC[C@@H](Br)[C@@]1(C)CCC1OC1(C)C (stereo partly shown) [Compound 18]
Chaetoceros gracilis
  EC50: 10.7 µM
In vivo
  LC50 at 24 h: 26.2 µM
  LC50 at 48 h: 26.3 µM
  LC50 at 72 h: 20.3 µM
Cyprids of A. amphitrite; 24 h
  EC50: 45.4 µM
Cyprids of A. amphitrite; [1]
  IC50: 0.046 µM
Cyprids of A. amphitrite; 48 h
  EC50: 50.4 µM
Cyprids of A. amphitrite; [2]
  IC50: 0.076 µM
Cyprids of A. amphitrite; 72 h
  EC50: 48.5 µM
Cyprids of A. amphitrite; [3]
  IC50: 0.316 µM
Cyprids of A. amphitrite
  EC50 values for settlement inhibition of barnacle cyprids (in words): sub-micromolar

## C=C(C1CCC(C)(O)C(Br)C1)C1C(Br)C2C(CCC2(C)O)C1(C)C (stereo not shown) [Compound 19, neorogioldiol]
Chaetoceros gracilis
  EC50: 352 µM
In vivo
  LC50 at 24 h: 413 µM
  LC50 at 48 h: 366 µM
  LC50 at 72 h: 573 µM
Cyprids of A. amphitrite; 24 h
  EC50: 52.8 µM
Cyprids of A. amphitrite; [1]
  IC50: 0.4 µM
Cyprids of A. amphitrite; 48 h
  EC50: 57.9 µM
Cyprids of A. amphitrite; [2]
  IC50: 0.915 µM
Cyprids of A. amphitrite; 72 h
  EC50: 70.4 µM
Cyprids of A. amphitrite; [3]
  IC50: 0.756 µM
Cyprids of A. amphitrite
  EC50 values for settlement inhibition of barnacle cyprids (in words): sub-micromolar

Reference: PMC6891695, “Evaluation of Antifouling Potential and Ecotoxicity of Secondary Metabolites Derived from Red Algae of the Genus Laurencia” (Marine Drugs, 2019)
